In patent publication US9820943B2, “Micronized amoxicillin” (DSM SINOCHEM PHARMACEUTICALS NETHERLANDS B.V., priority 2013, dated 2017):

Assay: Powder dissolution, visual determination of clarity in drinking water
Type: physicochemical
Conditions: 3.0 g in 1000 mL drinking water, stirred 2 min at 300±10 rpm, 30±1° C.; trihydrate
Method: Non-micronized amoxicillin trihydrate (3.0 g) was added to a 2 L beaker and drinking water (1000 mL) was added. The mixture was stirred for 2 min at 300±10 rpm at 30±1° C. After two minutes the stirrer was stopped. The same procedure was applied to a sample of micronized amoxicillin trihydrate. Both mixtures were visually observed.

| Visual appearance of the mixture (clarity) | SMILES |
| --- | --- |
| cloudy | CC1(C)S[C@@H]2[C@H](NC(=O)[C@H](N)c3ccc(O)cc3)C(=O)N2[C@H]1C(=O)O [Non-micronized amoxicillin trihydrate, amoxicillin trihydrate] |
| clear | CC1(C)S[C@@H]2[C@H](NC(=O)[C@H](N)c3ccc(O)cc3)C(=O)N2[C@H]1C(=O)O [micronized amoxicillin trihydrate, amoxicillin trihydrate] |
